Data published in patent US20130236656A1, “SELF-REDUCED METAL COMPLEX INKS SOLUBLE IN POLAR PROTIC SOLVENTS AND IMPROVED CURING METHODS” (LIQUID X PRINTED METALS, INC., priority 2012, published 2013).

Conditions: isolated solid

CC(C)C(=O)[O-].NCCN.[Ag+] [ethylenediamine silver isobutyrate]
hygroscopicity (hydroscopic [sic]): hydroscopic
